Like-named read-outs stand apart in the source and are kept apart here.
What was measured:
H510 = test: Antiproliferative effect of ChoK inhibition, SCLC line; format: cell-based, human; conditions: for IC50: H510 (SCLC); for sensitivity of the cell compared with the primary cells: number in parentheses
Description: (§1) First, the mRNA levels corresponding to said enzyme in cell lines derived from patients with lung cancer were detected again by means of automated real-time quantitative PCR reactions with specific Taqman probes. They were carried out both on cell lines corresponding to the most common type of lung cancer (75-85%), non-microcytic or NSCLC (non small cell lung cancer), represented by lines H460 and H1299, and on lines corresponding to the other type of cancer, microcytic or SCLC (small cell lung cancer), represented by lines H510 and H82, the data being represented in logarithmic scale relating to normal primary human bronchial epithelial cells, BEC. […] An increase with respect to the controls, which is particularly considerable in the case of the SCLC lines, especially H510, is observed in all cases.
(§2) The antiproliferative effect of ChoK inhibition in said cell lines caused by the addition of MN58b was also checked, obtaining the results shown in the following Table, in which the numbers between parentheses indicate the sensitivity of each cell compared with the primary cells. The differences between the primary cells and the four cell lines derived from tumors were significant (p:<0.001) in all the analyzed time periods.

H82 = test: as above; format: cell-based, human; conditions: for IC50: H82 (SCLC); for sensitivity of the cell compared with the primary cells: number in parentheses
Description: as §1, §2

HMEC [1] = test: Antiproliferative effect of ChoK inhibition, primary mammary epithelial cells; format: cell-based, human
Description: as §2

Ch-ind-1 cells = test: Proliferation of inducible interference line with chemical ChoK inhibitors; format: cell-based, human; conditions: Ch-ind-1, analogous to parent MDA-MB-231
Description: FIG. 23: Proliferation of MDA-MB-231 (upper row of plaques) and Ch-ind-1 (lower row of plaques) cells in growth permissive conditions (“Control” column? or in the presence of the chemical inhibitors of choline kinase MN58b (middle column) or RSM936 (right column).
FIGS. 23 and 24 show the results obtained in Ch-ind-1 cells, a cell line derived from MDA-MB-231, capable of expressing the interference construction after treatment with the inducing agent doxocycline. […] The genetic inhibition of ChoKα is correlated with a reduction of cell proliferation (determined by pCNA) and an increase of cell death due to apoptosis (determined by PARPdig, degraded PARP protein, which is an indicator of apoptosis). The effect begins to be seen after 10 days, although it is still very initial, and is much more pronounced 20 days after the beginning of the experiment (in which the population has very little ChoKα expression).

BEC = test: Antiproliferative effect of ChoK inhibition, primary bronchial epithelial cells; format: cell-based, human
Description: as §1, §2

MDA-MB-231 = conditions: MDA-MB-231, previously described; cited from earlier work
H460 = test: Antiproliferative effect of ChoK inhibition, NSCLC line; format: cell-based, human; conditions: for IC50: H460 (NSCLC); for sensitivity of the cell compared with the primary cells: number in parentheses
Description: as §1, §2

H1299 = test: as above; format: cell-based, human; conditions: for IC50: H1299 (NSCLC); for sensitivity of the cell compared with the primary cells: number in parentheses
Description: as §1, §2

HMEC [2] = conditions: cited from earlier work
[3] = test system: HEK293T cells transfected with the cka gene; test: Growth of tumors induced by choline kinase alpha overexpression in Nu/Nu mice; format: in vivo; conditions: 5 mg/Kg intraperitoneally, 5 consecutive days with 9 days of rest
Description: Given that tumors have been generated in vivo by overexpressing choline kinase alpha and that MN58b is specific for this isoform, it has been verified if the growth of the tumors induced by ChoKα is susceptible to inhibition by MN58b. […] When the tumors reached a tumor volume of 0.1 cm^3, treatment with the specific choline kinase alpha inhibitor, MN58b, began, which was administered intraperitoneally in sterile physiological serum for 5 consecutive days with 9 days of rest at a dose of 5 mg/Kg. The control mice received equivalent carrier doses, following the same calendar and the tumors were monitored at least twice a week.

[4] = molecular target: T1, recombinant human choline kinase alpha (Homo sapiens, UniProt P35790); test: Enzymatic activity of recombinant choline kinase isoforms in E. coli extracts; format: biochemical; conditions: recombinant isoforms expressed in E. coli
T1 construct: made in house; host or cells: E. coli
T1 sequence (P35790 whole entry, canonical isoform): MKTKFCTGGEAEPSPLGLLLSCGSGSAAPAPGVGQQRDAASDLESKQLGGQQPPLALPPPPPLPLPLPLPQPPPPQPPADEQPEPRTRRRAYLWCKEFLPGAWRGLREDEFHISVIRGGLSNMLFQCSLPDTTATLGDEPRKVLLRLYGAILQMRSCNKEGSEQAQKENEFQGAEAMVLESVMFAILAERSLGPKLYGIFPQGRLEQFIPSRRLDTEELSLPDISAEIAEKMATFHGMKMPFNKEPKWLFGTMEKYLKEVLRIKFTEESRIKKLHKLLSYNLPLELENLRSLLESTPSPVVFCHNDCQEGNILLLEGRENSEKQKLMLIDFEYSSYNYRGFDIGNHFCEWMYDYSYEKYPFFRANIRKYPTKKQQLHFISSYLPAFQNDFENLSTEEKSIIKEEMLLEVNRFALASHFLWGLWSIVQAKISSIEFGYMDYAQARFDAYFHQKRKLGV
Description: FIG. 9: Specificity of the inhibitor MN58b on choline kinase alpha. E. coil extracts in which recombinant human choline kinase alpha or choline kinase beta proteins are expressed were analyzed in the absence (0) or in the presence of increasing concentrations of MN58b.
Once the oncogenic activity of the choline kinase alpha isoform, as well as its high incidence of overexpression in human tumors was verified, it was then studied if the anti-tumor effect of the inhibitor MN58b [Hernández-Alcoceba, R., Saniger, L., Campos, J., Núñdez, M. C., Khaless, F., Gallo, M. Á., Espinosa, A., Lacal, J. C. Oncogene, 15, 2289-2301 (1997); Hernández-Alcoceba, R., Fernández, F., Lacal J. C. Cancer Res. 55, 3112-3118 (1999); Ramirez de Molina A., Bañez-Coronel M., Gutiérrez R., Rodriguez González A., Olmeda D., Megias D., Lacal J. C. Cancer Res. 64:6732-6739 (2004)] is specific for this choline kinase alpha isoform or if, in contrast, it could also be attributed to its possible interaction with the choline kinase beta isoform. This verification is necessary because the two choline kinase alpha and choline kinase beta isoforms share up to 75% homology in the substrate binding domains and in the catalytic region. […]

MN58b gave an IC50 (H510; 48 h, read-out: 48 h IC50) of 1.1 ± 0.1 µM, an IC50 (H510; 72 h, read-out: 72 h IC50) of 0.4 ± 0.05 µM and an IC50 (H510; 114 h, read-out: 114 h IC50) of 0.1 ± 0.03 µM. The “sensitivity of the cell compared with the primary cells” value (H510; H510, 48 h) was 41, the “sensitivity of the cell compared with the primary cells” value (H510; H510, 72 h) was 53 and the “sensitivity of the cell compared with the primary cells” value (H510; H510, 114 h) was 27. It also gave an IC50 (H82; 48 h, read-out: 48 h IC50) of 1.9 ± 0.2 µM, an IC50 (H82; 72 h, read-out: 72 h IC50) of 0.8 ± 0.04 µM and an IC50 (H82; 114 h, read-out: 114 h IC50) of 0.27 ± 0.01 µM. The “sensitivity of the cell compared with the primary cells” value (H82; H82, 48 h) was 24, the “sensitivity of the cell compared with the primary cells” value (H82; H82, 72 h) was 27 and the “sensitivity of the cell compared with the primary cells” value (H82; H82, 114 h) was 12. For the same substance, the IC50 (HMEC [1]; 48 h, read-out: 48 h IC50) was 44.7 ± 4.95 µM, the IC50 (HMEC [1]; 72 h, read-out: 72 h IC50) was 20.9 ± 2.7 µM and the IC50 (HMEC [1]; 114 h, read-out: 114 h IC50) was 3.4 ± 0.13 µM. For the same substance, the “sensitivity of proliferation to chemical inhibition of ChoKα” value (Ch-ind-1 cells) was “sensitive to the chemical inhibition”, the IC50 (BEC; 48 h, read-out: 48 h IC50) was 40.5 ± 6.2 µM and the IC50 (BEC; 72 h, read-out: 72 h IC50) was 18.3 ± 4.8 µM. The IC50 (BEC; 114 h, read-out: 114 h IC50) was 4.2 ± 0.8 µM, the “anti-tumor effect of pharmacological inhibition of choline kinase” value (MDA-MB-231) was “strong anti-tumor effect due to apoptosis induction” and the IC50 (H460; 48 h, read-out: 48 h IC50) was 7.03 ± 2.03 µM. The IC50 (H460; 72 h, read-out: 72 h IC50) was 2.6 ± 0.8 µM, the IC50 (H460; 114 h, read-out: 114 h IC50) was 1.1 ± 0.1 µM and the “sensitivity of the cell compared with the primary cells” value (H460; H460, 48 h) was 6. For the same substance, the “sensitivity of the cell compared with the primary cells” value (H460; H460, 72 h) was 8, the “sensitivity of the cell compared with the primary cells” value (H460; H460, 114 h) was 3 and the IC50 (H1299; 48 h, read-out: 48 h IC50) was 10.3 ± 2.5 µM. For the same substance, the IC50 (H1299; 72 h, read-out: 72 h IC50) was 2.7 ± 0.7 µM, the IC50 (H1299; 114 h, read-out: 114 h IC50) was 0.9 ± 0.1 µM and the “sensitivity of the cell compared with the primary cells” value (H1299; H1299, 48 h) was 4. For the same substance, the “sensitivity of the cell compared with the primary cells” value (H1299; H1299, 72 h) was 8, the “sensitivity of the cell compared with the primary cells” value (H1299; H1299, 114 h) was 4 and the “cell fate of primary cells after treatment” value (HMEC [2]; HMEC treated with the inhibitor) was “cycle-arrested”. The “effect on the viability of normal primary cells” value (HMEC [2]; HMEC, chemical inhibitor) was “no effect on the viability”, the tumor growth reduction [3] was 80% and the “times more active against choline kinase alpha than against choline kinase beta” value [4] was 20 times.
